The text below walks through data of EP4537832A1, “METHOD FOR TREATING CANCER PATIENT WITH AKR1C3 ENZYME-ACTIVATED PRODRUG” (Ascentawits Pharmaceuticals, Ltd., priority 2022, dated 2023).

The structures appear in SMILES notation. “Also recorded” adds a separate entry of the source.

Test [1] concerns p-ERK2. Nature of the test: Western blot in HPAF II cells with MEK/ERK modulators and AST: p-ERK2. It counts as cell-based. An excerpt:
The experiment used three types of MEK/ERK modulators, including two inhibitors and one activator. The inhibitors were PD98059, a MEK1/2 specific inhibitor, and Suramin, a broad-spectrum growth factor receptor inhibitor; while the activator of the ERK signaling pathway is Phorbol Ester (TPA). The chemical structures of inhibitor PD98059, inhibitor Suramin, and activator TPA are as follows: [drawing 48] [drawing 49] [drawing 50]
The experiment was assigned to inhibitor group and activator group, both of which were performed by Western Blot and cell apoptosis experiments.
In the Western blot experiment, HPAF II cell suspensions were treated with each group of compounds, and cultured overnight in a 37 °C, 5% CO2 incubator, and the cell protein lysate was collected for Western blot (WB) detection.
The specific compounds to be treated in the Western blot inhibitor group and activator group are as follows: Inhibitor group: 1% DMSO treatment group, 1 µM AST treatment group, 30 µM PD98059 treatment group, 1 mM Suramin treatment group, 1 µM AST + 30 µM PD98059 treatment group, and 1 µM AST + 1 mM Suramin treatment group; and Activator group: 1% DMSO treatment group, 0.5 µM AST treatment group, 25 nM TPA treatment group, and 0.5 µM AST + 25 nM TPA treatment group.

Test [2] concerns HPAF II cells. Nature of the test: Cell apoptosis detection (Caspase Glo 3/7) in HPAF II cells with MEK/ERK modulators and AST. It counts as cell-based. The protocol:
Additionally, cell apoptosis detection was performed as follows: • 1) Caspase Glo® 3/7 reagents were prepared and equilibrated to room temperature. The buffer of the reagents and the substrate were mixed homogeneously at 1:1 to prepare Caspase Glo® 3/7 reagents. The configured reagents can be stored at 4 °C for 3 days. • 2) 100 µL Caspase Glo® 3/7 reagents were added to each well of culture medium containing 100 µL blank (wells without cells), negative control cells, or treated cells. Due to the sensitivity of the analysis, be careful not to make the tip of the pipette to touch the holes that contained samples to avoid cross contamination. The plates were covered with a plate sealant or lid. • 3) The reagent solutions were mixed gently using a shaker at a speed of 300-500 rpm for 30 seconds, and left in the dark at room temperature for 1 hour. • 4) The luminescence of each sample was measured in a plate reading photometer. And the luminescence value of each group was calculated, and analyze by making a column diagram.
The specific compounds to be treated in the apoptosis inhibitor group and activator group are as follows: Inhibition group: 1% DMSO treatment group, 1 µM AST treatment group, 30 µM PD98059 treatment group, 1 mM Suramin treatment group, 1 µM AST + 30 µM PD98059 treatment group, and 1 µM AST + 1 mM Suramin treatment group; and Activator group: 1% DMSO treatment group, 1 µM AST treatment group, 50 nM TPA treatment group, and 1 µM AST + 50 nM TPA treatment group.

The test system of test [3] is p-ERK2. Nature of the test: AST induced ERK phosphorylation experiment, Western blot in HPAF II cells: p-ERK2. The test is classed as cell-based. On the procedure:
AST induced ERK phosphorylation experiment. Three sets of experiments were conducted with corresponding three sets of variables: AST concentration, AST action time, and AKRAC3 enzyme dependent.
The expressions of NRF2 and AKR1C3 were detected by Western blot.

In test [4] the test system is NRF2. Conditions: HPAF II cells; increasing SFN concentration 0.875-7 µM, overnight. On the procedure: (§1) The solution of SFN compound (Sulforaphane, NRF2 activator) was added to HPAF II cell suspension, cultured overnight in a 37 °C, 5% CO2 incubator, and the cell protein lysate was collected for Western blot (WB) detection.
(§2) The experiment was assigned to 5 groups: 0.5% DMSO, 0.875 µM SFN, 1.75 µM SFN, 3.5 µM SFN, and 7 µM SFN.
(§3) HPAF II cells were treated with different concentrations of NRF2 activator SFN, and then the expression of NRF2 and AKR1C3 was detected by Western blot.

Test [5] deals with AKR1C3. The conditions noted are these: HPAF II cells; increasing SFN concentration 0.875-7 µM, overnight. The protocol: as §1, §2, §3

For the molecule `Cc1ccc(C(=O)Nc2ccc(S(=O)(=O)O)c3cc(S(=O)(=O)O)cc(S(=O)(=O)O)c23)cc1NC(=O)c1cccc(NC(=O)Nc2cccc(C(=O)Nc3cc(C(=O)Nc4ccc(S(=O)(=O)O)c5cc(S(=O)(=O)O)cc(S(=O)(=O)O)c45)ccc3C)c2)c1` [suramin, Suramin, reference compound], in test [1] (1 mM Suramin alone), the “expression level of p-ERK2” value is “slightly reduced”. The “cell apoptosis (Caspase 3/7 luminescence)” value in test [2] (1 mM Suramin monotherapy) is on record as “almost no effect on cell apoptosis”.

As to `COc1cccc(-c2cc(=O)c3ccccc3o2)c1N` [PD98059, reference compound], the “expression level of p-ERK2” value in test [1] (30 µM PD98059 alone) is “slightly reduced”. For the same molecule, the “cell apoptosis (Caspase 3/7 luminescence)” value in test [2] (30 µM PD98059 monotherapy) was “almost no effect on cell apoptosis”.

With `O=C(N1CCOCC1)N1CCN(c2ccc(Cl)cc2Cl)CC1` [AST-3021, reference compound], the “p-NRF2 expression level / level of p-ERK2” value in test [3] (3 µM AST-3021 alone, 24h) is listed as “remained basically unchanged; also recorded: did not affect”. The “effect on the increase of AST-mediated phosphorylation of ERK2” value in test [3] (3 µmol/L AST-3021 pretreatment 2 hours before 1 µmol/L AST) was “strongly inhibited”.

Regarding `C[S+]([O-])CCCCN=C=S` (centres unmarked) [SFN, Sulforaphane], the “expressions of NRF2” value in test [4] is recorded as “significantly increased”. Besides, the “expressions of AKR1C3” value in test [5] was “also increased simultaneously”.
